Experimental data published in patent US20140357713A1, “ANTIMICROBIAL COMPOUNDS AND METHODS OF USE” (NexMed Holdings, Inc., priority 2012, published 2014).
Structures can show the parent of a compound that is named as a salt. Where two headings read alike, the source gives them in different places.

Tests used:
[1] = Solubility (Sol., Table 1); assay type: physicochemical
pH (Table 1) = assay type: physicochemical
[2] = test system: Escherichia coli (ATCC 25922); experiment: Minimum inhibitory concentration (MIC) assay, Example 33; assay type: cell-based; conditions: Escherichia coli
Method: (§1) Thirty compounds were tested for antimicrobial activity using standard procedures and standard strains for both the minimum inhibitory concentration (MIC) assay and a time kill study. Both the MIC assay and the time kill study were performed according to Clinical and Laboratory Standards Institute (CLSI) guidelines. Three bacteria strains, Escherichia coli (ATCC 25922), Pseudomonas aeruginosa (ATCC 27853), Staphulococcus aureus (ATCC 29213), and two fungus strains, Candida albicans (ATCC 90029) and Aspergillus niger (CMCC 98003), were used in the experiments.
(§2) Preparation of cultures. Before the experiment, two days for the bacteria strains and five days for fungus strains, an aliquot was removed from the cultures frozen at −80° C. Medium was added to the surface of an appropriate agar plate and streaked with the aliquot. The plate was incubated for 20 to 24 hrs at 35±2° C. for bacteria or for 5 days at 26-30° C. in incubator for fungus. From the resulting growth on each plate, one isolated colony of similar morphology was selected and re-streaked onto a fresh agar plate using a sterile disposable loop. The plate was incubated 20 to 24 hrs at 35±2° C. or for 5 days at 26-30° C. in an incubator.
(§3) Preparation of Assay Plates with Medium and Drugs. On the day of the assay, CAMHB medium or RPMI 1640 medium was removed from 4′C storage and allowed to reach room temperature. Ninety microliters (μL) of room temperature CAMHB or RPMI 1640 (supplemented with the appropriate concentration of DMSO, if required) were added to rows B-G of each 96-well microtiter plate. Using a pipette, duplicate 180 μL aliquots of each drug stock solution were added to column 1 (e.g. A1 and B1 or C1 and D1 or E1 and F1 or G1 and H1). Using a multichannel pipette or the Provision 2000 liquid handler, serial 2-fold dilutions (90 μL) were performed in each row across the plate to row G. Eighty μL of compounds dilutions were transferred to a 96-deep well plate. Medium, 1,520 μL of CAMHB or RPMI 1640, was added to each well. The contents of the wells were mixed thoroughly. A 50 μL aliquot of each of the resulting mixtures was transferred to a 96-well assay plate.
(§4) For bacteria, a sterile inoculating loop was used to transfer growth from an agar plate culture into about 5 mL of test medium. Using a turbidity meter, this inoculum was adjusted so that its density (600 nm) was equivalent to a 0.5 McFarland barium sulfate standard (0.08-0.13). The resulting suspension was diluted 1:100 into medium to obtain two times test inoculums.
(§5) For Aspergillus niger, sporulating colonies were covered with RPMI 1640, and a suspension was prepared by gently probing the colonies with the tip of a transfer pipette. The suspension was transferred to a sterile tube and mixed with a vortex mixer for 15 seconds. The densities at 530 nm were adjusted to 0.09-0.13 for each sample. The resulting suspension was diluted 1:50 with the medium to obtain two times test inoculums. Fifty μL/well of this inoculum suspension was added to wells of drug-containing plates (1:2 dilution). Plates were incubated at 35° C. for the appropriate times. The MIC was read and recorded according to CLSI guidelines.
(§6) The MIC values for thirty compounds against Escherichia coli, Pseudomonas aeruginosa, Staphulococcus aureus, Candida albicans, and Aspergillus niger were recorded and are presented in Table 3 and Table 4.

[3] = test system: Pseudomonas aeruginosa (ATCC 27853); experiment: as above; assay type: cell-based; conditions: Pseudomonas aeruginosa
Method: as §1, §2, §3, §4, §5, §6

[4] = test system: Staphulococcus aureus (ATCC 29213); experiment: as above; assay type: cell-based, Staphylococcus aureus; conditions: Staphylococcus aureus
Method: as §1, §2, §3, §4, §5, §6

[5] = test system: Candida albicans (ATCC 90029); experiment: as above; assay type: cell-based; conditions: Candida albicans
Method: as §1, §2, §3
For Candida albicans, a sterile inoculating loop was used to transfer growth from an agar plate culture into a tube with RPMI1640 medium. This inoculum was adjusted so that its density at 530 nm was in the ranges from 0.08 to 0.13. The resulting suspension was diluted 1:50 and further diluted 1:20 with the medium to obtain two times test inoculums.
as §5, §6

[6] = test system: Aspergillus niger (CMCC 98003); experiment: as above; assay type: cell-based; conditions: for MIC: Aspergillus niger; for MIC Aspergillus niger: n = 2
Method: as §1, §2, §3, §5, §6

[7] = test system: Escherichia coli (ATCC 25922); experiment: Time kill study, Example 33 (0 to 5 min); assay type: cell-based; conditions: 1×MIC
Method: as §1
(§7) The viable counts in Log10 CFU/mL at each time point were recorded.
(§8) Time kill studies. Strain suspensions were prepared as described above for the MIC test, and strain suspensions and compound solutions were mixed in the same volume. Samples were removed at specified times including 0 min, 30 sec, 1 min and 5 mins, were diluted in the test medium and streaked on agar. Colonies were counted after 24 to 48 hrs of incubation. […]

[8] = test system: Pseudomonas aeruginosa (ATCC 27853); experiment: Time kill study, Example 33 (0 to 5 min); assay type: cell-based; conditions: 1×MIC
Method: as §1, §7, §8

[9] = test system: Staphylococcus aureus (ATCC 29213); experiment: Time kill study, Example 33 (0 to 5 min); assay type: cell-based; conditions: 1×MIC
Method: as §1, §7, §8

[10] = ATCC25922, Table 19 summary of Example 33 and Example 35
[11] = ATCC25922, read-out: MIC E. coli, n = 1
[12] = ATCC25922, read-out: MIC E. coli, n = 2
[13] = ATCC27853, read-out: MIC P. aeruginosa, n = 1
[14] = ATCC27853, read-out: MIC P. aeruginosa, n = 2
[15] = ATCC29213, read-out: MIC S. aureus, n = 1
[16] = ATCC29213, read-out: MIC S. aureus, n = 2
[17] = ATCC90029, read-out: MIC Candida albicans, n = 1
[18] = ATCC90029, read-out: MIC Candida albicans, n = 2
[19] = CMCC98003, read-out: MIC Aspergillus niger

Structure (SMILES) | Sol. [1] [%] | pH (pH (Table 1)) | MIC [2, 10] [µg/mL] | MIC [2, 11] [µg/mL] | MIC [2, 12] [µg/mL] | MIC ([3]; ATCC27853, Table 19 summary) [µg/mL] | MIC [3, 13] [µg/mL] | MIC [3, 14] [µg/mL] | MIC ([4]; ATCC29213, Table 19 summary) [µg/mL] | MIC [4, 15] [µg/mL] | MIC [4, 16] [µg/mL] | MIC ([5]; ATCC90029, Table 19 summary) [mg/mL] | MIC [5, 17] [mg/mL] | MIC [5, 18] [mg/mL] | MIC ([6]; CMCC98003) [mg/mL] | MIC [6, 19] [mg/mL] | MIC Aspergillus niger [6] [mg/mL] | Viable counts, Escherichia coli time kill study ([7]; 0.5 min) [Log10 CFU/mL] | Viable counts, Escherichia coli time kill study ([7]; 1 min) [Log10 CFU/mL] | Viable counts, Escherichia coli time kill study ([7]; 5 min) [Log10 CFU/mL] | also measured
CCCCCCCCCCCCOC(=O)C(C(C)O)N(C)C (stereo not drawn) [Nex-51, Dodecyl 2-(dimethylamino)-3-hydroxybutanoate hydrochloride] | 98 | 0.56 | – | – | – | – | – | – | – | – | – | – | – | – | – | – | – | – | – | – | –
CCCCCCCCCCCCOC(=O)C(C(C)C)N(C)C (stereo not drawn) [Nex-53, Dodecyl 2-(dimethylamino)-3-methylbutanoate hydrochloride] | 44 | 1.69 | 6250 | 6250 | 6250 | 6250 | 6250 | 6250 | 6250 | 6250 | 6250 | > 12.5 | > 12.5 | > 12.5 | > 12.5 | > 12.5 | >12.5 | 5.72 | 5.71 | <3.52 | Viable counts, Escherichia coli time kill study ([7]; time 0): 5.64 Log10 CFU/mL; Viable counts, Pseudomonas aeruginosa time kill study ([8]; 0.5 min): 5.54 Log10 CFU/mL; Viable counts, Pseudomonas aeruginosa time kill study ([8]; 1 min): 5.47 Log10 CFU/mL; Viable counts, Pseudomonas aeruginosa time kill study ([8]; 5 min): 5.49 Log10 CFU/mL; Viable counts, Pseudomonas aeruginosa time kill study ([8]; time 0): 5.54 Log10 CFU/mL; Viable counts, Staphylococcus aureus time kill study ([9]; 0.5 min): 6.2 Log10 CFU/mL; Viable counts, Staphylococcus aureus time kill study ([9]; 1 min): 6.24 Log10 CFU/mL; Viable counts, Staphylococcus aureus time kill study ([9]; 5 min): 6.21 Log10 CFU/mL; Viable counts, Staphylococcus aureus time kill study ([9]; time 0): 6.35 Log10 CFU/mL
CCCCCCCCCCCCOC(=O)C(CC(C)C)N(C)C (stereo not drawn) [Nex-55, Dodecyl 2-(dimethylamino)-4-methylpentanoate hydrochloride] | 50 | 1.84 | 6250 | 6250 | 6250 | 6250 | 6250 | 6250 | 6250 | 6250 | 6250 | > 12.5 | > 12.5 | > 12.5 | > 12.5 | > 12.5 | >12.5 | 5.71 | 5.51 | 4.6 | Viable counts, Escherichia coli time kill study ([7]; time 0): 5.68 Log10 CFU/mL; Viable counts, Pseudomonas aeruginosa time kill study ([8]; 0.5 min): 5.61 Log10 CFU/mL; Viable counts, Pseudomonas aeruginosa time kill study ([8]; 1 min): 5.58 Log10 CFU/mL; Viable counts, Pseudomonas aeruginosa time kill study ([8]; 5 min): 5.45 Log10 CFU/mL; Viable counts, Pseudomonas aeruginosa time kill study ([8]; time 0): 5.37 Log10 CFU/mL; Viable counts, Staphylococcus aureus time kill study ([9]; 0.5 min): 6.22 Log10 CFU/mL; Viable counts, Staphylococcus aureus time kill study ([9]; 1 min): 6.21 Log10 CFU/mL; Viable counts, Staphylococcus aureus time kill study ([9]; 5 min): 6.18 Log10 CFU/mL; Viable counts, Staphylococcus aureus time kill study ([9]; time 0): 6.23 Log10 CFU/mL
